Results from ChEMBL document CHEMBL1201862, “PubChem BioAssay data set” (2004).
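48-hour exposure; five concentrations; linearly interpolated endpoints. Abbreviation: GI50, concentration required for 50% inhibition of growth.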 Active and inactive are the calls of the source. No stated cut-off is given here; in the data, active = GI50 up to about 1.1 µM and inactive = higher.

Legend:
Test in all cases: growth of human tumour cells (NCI), 48 h
NCI-H226 = system: NCI-H226
A549 = system: A549
KM12 = system: KM12
SN12C = system: SN12C
COLO 205 = system: COLO 205
OVCAR-5 = system: OVCAR-5
TK-10 = system: TK-10
Hs-578T = system: Hs-578T
UO-31 = system: UO-31
SF-539 = system: SF-539
RXF 393 = system: RXF 393
IGROV-1 = system: IGROV-1
OVCAR-3 = system: OVCAR-3
ACHN = system: ACHN
NCI/ADR-RES = system: NCI/ADR-RES
CAKI-1 = system: CAKI-1
MDA-MB-231 = system: MDA-MB-231
HOP-92 = system: HOP-92
HOP-62 = system: HOP-62
DU-145 = system: DU-145

SMILES | GI50 (NCI-H226) | GI50 (A549) | GI50 (KM12) | GI50 (SN12C) | GI50 (COLO 205) | GI50 (OVCAR-5) | GI50 (TK-10) | GI50 (Hs-578T) | GI50 (UO-31) | GI50 (SF-539) | GI50 (RXF 393) | GI50 (IGROV-1) | GI50 (OVCAR-3) | GI50 (ACHN) | GI50 (NCI/ADR-RES) | GI50 (CAKI-1) | GI50 (MDA-MB-231) | GI50 (HOP-92) | GI50 (HOP-62) | GI50 (DU-145)
COC(=O)c1c(C)cccc1C1CN=NC12Cc1cc(C)c(C)cc1C2=O (configuration not stated) | 47.9 µM (inactive) | 27.8 µM (inactive) | 30.5 µM (inactive) | 75.3 µM (inactive) | 39.4 µM (inactive) | > 100 µM (inactive) | 51.4 µM (inactive) | 96.4 µM (inactive) | 31.6 µM (inactive) | > 100 µM (inactive) | 68.4 µM (inactive) | > 100 µM (inactive) | 62.4 µM (inactive) | 57.4 µM (inactive) | 27.4 µM (inactive) | 73.1 µM (inactive) | 65.9 µM (inactive) | 30.4 µM (inactive) | > 100 µM (inactive) | > 100 µM (inactive)
COc1cc(/C=[N+](\[O-])c2ccccc2Cl)ccc1OC(=S)S | 57.4 µM (inactive) | 39.8 µM (inactive) | 15.1 µM (inactive) | 45.7 µM (inactive) | 21.8 µM (inactive) | > 100 µM (inactive) | 64.4 µM (inactive) | 61.7 µM (inactive) | 39.6 µM (inactive) | 68.7 µM (inactive) | 26.4 µM (inactive) | 49.4 µM (inactive) | 30.8 µM (inactive) | 34 µM (inactive) | 26.7 µM (inactive) | 31.7 µM (inactive) | 53.3 µM (inactive) | 10.1 µM (inactive) | 39.9 µM (inactive) | 72.1 µM (inactive)
C[C@]12CCC(=O)C=C1CC[C@@H]1[C@@H]2CC[C@]2(C)C(=O)[C@H](n3ccnc3)C[C@@H]12 | > 100 µM (inactive) | > 100 µM (inactive) | > 100 µM (inactive) | > 100 µM (inactive) | > 100 µM (inactive) | > 100 µM (inactive) | > 100 µM (inactive) | > 100 µM (inactive) | > 100 µM (inactive) | > 100 µM (inactive) | > 100 µM (inactive) | > 100 µM (inactive) |  | > 100 µM (inactive) | > 100 µM (inactive) | > 100 µM (inactive) | > 100 µM (inactive) | > 100 µM (inactive) |  | > 100 µM (inactive)
O=C(O)c1nc(-c2ccccn2)c(-c2ccccn2)nc1C(=O)O | 1.7 µM (inactive) | 1.12 µM (inactive) | 2.75 µM (inactive) | 3.27 µM (inactive) | 2.47 µM (inactive) | 3.01 µM (inactive) | 3.48 µM (inactive) | 19.1 µM (inactive) | 1.64 µM (inactive) | 3.38 µM (inactive) | 2.31 µM (inactive) | 3.5 µM (inactive) | 2.87 µM (inactive) | 0.678 µM (active) | 2.75 µM (inactive) | 2.92 µM (inactive) | 9.82 µM (inactive) | 9.51 µM (inactive) | 2.15 µM (inactive) | 2.47 µM (inactive)
O=C(CCl)Nc1ccc(C(=O)N/N=C/c2ccc(Cl)cc2)cc1 | 18.6 µM (inactive) | 6.07 µM (inactive) | 0.889 µM (active) | 2.84 µM (inactive) | 0.731 µM (active) | 18.8 µM (inactive) | 15.9 µM (inactive) | 2.82 µM (inactive) | 4.46 µM (inactive) | 2.01 µM (inactive) | 0.946 µM (active) | 0.728 µM (active) | 1.84 µM (inactive) | 2.59 µM (inactive) | 2.37 µM (inactive) | 2.82 µM (inactive) | 1.94 µM (inactive) | 2 µM (inactive) | 3.52 µM (inactive) | 3.02 µM (inactive)
COc1ccc(OC)c(-c2cc(=O)c3c(OC)c(OC)c(OC)c(OC)c3o2)c1 | 26.2 µM (inactive) | 28.5 µM (inactive) |  | 27.9 µM (inactive) | 17.1 µM (inactive) | 49.1 µM (inactive) | 37.9 µM (inactive) | 37.6 µM (inactive) | 15.4 µM (inactive) | 41.1 µM (inactive) | 22 µM (inactive) | 29.9 µM (inactive) | 23 µM (inactive) | 20.7 µM (inactive) | 22.8 µM (inactive) | 40.6 µM (inactive) | 40.2 µM (inactive) | 11.7 µM (inactive) | 27.6 µM (inactive) | 25.8 µM (inactive)
O=C1Nc2ccc(Br)cc2/C1=N/c1ccc(Cl)cc1 | 23.4 µM (inactive) | 25.4 µM (inactive) | 4.55 µM (inactive) | 13 µM (inactive) | 1.78 µM (inactive) | 18.2 µM (inactive) | 21.8 µM (inactive) | 33.6 µM (inactive) | 13.5 µM (inactive) | 3.58 µM (inactive) | 18.5 µM (inactive) |  | 15.8 µM (inactive) | 13.4 µM (inactive) | 12.6 µM (inactive) | 7.1 µM (inactive) | 15.5 µM (inactive) | 37.3 µM (inactive) | 21.7 µM (inactive) | 47.2 µM (inactive)
Cc1cc(=O)n2nc(SCc3ccccc3)sc2n1 | > 100 µM (inactive) | > 100 µM (inactive) | > 100 µM (inactive) | > 100 µM (inactive) | > 100 µM (inactive) | > 100 µM (inactive) | 34.4 µM (inactive) | 25.4 µM (inactive) | 24.3 µM (inactive) | > 100 µM (inactive) | 60.3 µM (inactive) | > 100 µM (inactive) | > 100 µM (inactive) | 22.8 µM (inactive) | > 100 µM (inactive) |  | > 100 µM (inactive) | 94.8 µM (inactive) | > 100 µM (inactive) | > 100 µM (inactive)
CC1=NN(c2cccc(Cl)c2)C2(SCC(=O)N2c2nc3ccccc3s2)/C1=C\c1ccc(Cl)cc1 (configuration not stated) | 23.8 µM (inactive) |  | 15.4 µM (inactive) |  |  | 20.2 µM (inactive) | 30.2 µM (inactive) | 19.4 µM (inactive) | 15.1 µM (inactive) | 26.2 µM (inactive) | 20.4 µM (inactive) | 15 µM (inactive) | 16.8 µM (inactive) | 19.2 µM (inactive) | 38.8 µM (inactive) | 18.3 µM (inactive) | 25.5 µM (inactive) | 13.4 µM (inactive) | 18 µM (inactive) | 18.4 µM (inactive)
Cc1ccc2c(c1C)CC1(Cc3ccc(C)c(C)c3C1=O)C2=O (configuration not stated) | 52.1 µM (inactive) | 35.7 µM (inactive) | > 100 µM (inactive) | > 100 µM (inactive) | > 100 µM (inactive) | > 100 µM (inactive) | 29.7 µM (inactive) | 91.8 µM (inactive) | > 100 µM (inactive) | 28.6 µM (inactive) | 17.1 µM (inactive) | 21.7 µM (inactive) | > 100 µM (inactive) | 46 µM (inactive) | > 100 µM (inactive) | 44.2 µM (inactive) | 30.8 µM (inactive) | 34 µM (inactive) |  | > 100 µM (inactive)
O=C1c2cccc3cc([N+](=O)[O-])cc(c23)C(=O)N1O | 31 µM (inactive) | 33.6 µM (inactive) | 20.6 µM (inactive) | 33.5 µM (inactive) | 51.1 µM (inactive) | 44.1 µM (inactive) | 25.9 µM (inactive) | 38.7 µM (inactive) | 31.7 µM (inactive) |  | 33 µM (inactive) | 22.9 µM (inactive) | 28.9 µM (inactive) | 28.1 µM (inactive) | 40.8 µM (inactive) | 31.7 µM (inactive) | 14.2 µM (inactive) | 57 µM (inactive) | 32.8 µM (inactive) | 37.5 µM (inactive)
O=CN1CCN(C(=O)c2cc(Cl)cc(Cl)c2)C1=S | 14.7 µM (inactive) | 20.8 µM (inactive) | 14.4 µM (inactive) | 15.6 µM (inactive) | 17.1 µM (inactive) | 21.9 µM (inactive) | 15.3 µM (inactive) | 21 µM (inactive) |  | 20.2 µM (inactive) | 16 µM (inactive) | 18.5 µM (inactive) | 14.8 µM (inactive) | 16.9 µM (inactive) | 28.9 µM (inactive) | 13.3 µM (inactive) | 15.6 µM (inactive) | 17.9 µM (inactive) | 15.2 µM (inactive) | 16.8 µM (inactive)
O=C1C(C(O)(C(F)(F)Cl)C(F)(F)Cl)CCC1C(O)(C(F)(F)Cl)C(F)(F)Cl (configuration not stated) | 3.6 µM (inactive) | 9.57 µM (inactive) | 4.45 µM (inactive) | 6.87 µM (inactive) | 4.17 µM (inactive) | 5.43 µM (inactive) | 5.52 µM (inactive) | 1.9 µM (inactive) |  | 2.74 µM (inactive) | 5.05 µM (inactive) | 4.98 µM (inactive) | 7.28 µM (inactive) | 3.81 µM (inactive) | > 10 µM (inactive) | 3.4 µM (inactive) | 3.34 µM (inactive) | 2.09 µM (inactive) | 5.57 µM (inactive) | 3.81 µM (inactive)
Cc1cn(C(=O)NC23CC4CC(CC(C4)C2)C3)c(=O)[nH]c1=O | 24.9 µM (inactive) | 35.9 µM (inactive) | 64.4 µM (inactive) | 25.4 µM (inactive) | 24 µM (inactive) | > 100 µM (inactive) | 32.8 µM (inactive) | 32.7 µM (inactive) | 69.5 µM (inactive) | 46.2 µM (inactive) | 21.6 µM (inactive) |  | 88.3 µM (inactive) | 27.9 µM (inactive) | 27.4 µM (inactive) | 32.2 µM (inactive) | 24.7 µM (inactive) | 51.6 µM (inactive) | > 100 µM (inactive) | > 100 µM (inactive)
